According to patent US4362743A, “Antibacterial monic acid esters” (Beecham Group Limited, priority 1980, dated 1982):
Converted amounts (≈) assume the structure as drawn. Read-outs that look alike come from different tables or passages of the source.

Key:
M. suipneumoniae NB12 = assay: Anti-mycoplasmal activity in vitro MIC; assay type: cell-based; conditions: Mesomycoplasma hyopneumoniae
M. suipneumoniae JF 435 = assay: Anti-mycoplasmal activity in vitro MIC; assay type: cell-based; conditions: Mesomycoplasma hyopneumoniae, JF435, 144 h
M. suipneumoniae HK (2) = assay: Anti-mycoplasmal activity in vitro MIC; assay type: cell-based; conditions: Mesomycoplasma hyopneumoniae, 144 h
M. suipneumoniae Str. 11 = assay: Anti-mycoplasmal activity in vitro MIC; assay type: cell-based; conditions: Mesomycoplasma hyopneumoniae
[1] = system: M. suipneumoniae J2206/183b; assay: Anti-mycoplasmal activity in vitro MIC; assay type: cell-based; conditions: Mesomycoplasma hyopneumoniae, 144 h
[2] = system: M. suipneumoniae PW/C/210; assay: Anti-mycoplasmal activity in vitro MIC; assay type: cell-based; conditions: Mesomycoplasma hyopneumoniae, 144 h
M. suipneumoniae LABER = assay: Anti-mycoplasmal activity in vitro MIC; assay type: cell-based; conditions: Mesomycoplasma hyopneumoniae, 144 h
M. suipneumoniae UCD 1 = assay: Anti-mycoplasmal activity in vitro MIC; assay type: cell-based; conditions: Mesomycoplasma hyopneumoniae, UCD1, 144 h
[3] = system: M. suipneumoniae ATCC 25095; assay: Anti-mycoplasmal activity in vitro MIC; assay type: cell-based; conditions: Mesomycoplasma hyopneumoniae, ATCC25095, 144 h; M. suipneumoniae ATCC 25095; Friis broth, 0.9% agarose, 6 days 37° C.; read-out: M.I.C.
[4] = system: M. suipneumoniae NCTC 10110; assay: Anti-mycoplasmal activity in vitro MIC; assay type: cell-based; conditions: Mesomycoplasma hyopneumoniae, NCTC10110, 144 h
M. hyorhinis ATCC 23234 = assay: Anti-mycoplasmal activity in vitro MIC; assay type: cell-based; conditions: Mesomycoplasma hyorhinis, ATCC23234, 144 h
M. hyorhinis ATCC 25021 = assay: Anti-mycoplasmal activity in vitro MIC; assay type: cell-based; conditions: Mesomycoplasma hyorhinis, ATCC25021, 144 h
[5] = system: M. hyosynoviae ATCC 25591; assay: Anti-mycoplasmal activity in vitro MIC; assay type: cell-based; conditions: 144 h
M. bovis NCTC 10131 = assay: microbe, parasite or virus in culture; assay type: cell-based; conditions: NCTC10131, 144 h
[6] = system: M. bovigenitalium ATCC 14173; assay: Anti-mycoplasmal activity in vitro MIC; assay type: cell-based; conditions: 144 h
M. dispar NCTC 10125 = assay: Anti-mycoplasmal activity in vitro MIC; assay type: cell-based; conditions: 144 h
M. gallisepticum S6 = assay: Anti-mycoplasmal activity in vitro MIC; assay type: cell-based; conditions: Mycoplasmoides gallisepticum, 144 h; M. gallisepticum S6; Friis broth, 0.9% agarose, 6 days 37° C.; read-out: M.I.C.
M. pneumoniae ATCC 15492 = assay: Anti-mycoplasmal activity in vitro MIC; assay type: cell-based; conditions: Mycoplasmoides pneumoniae, ATCC15492, 144 h
[7] = system: Corneybacterium xerosis 9755; assay: Human bacteria MIC; assay type: cell-based
Description: (§1) The values were determined by serial dilutions in nutrient agar with 5% chocolated horse blood after incubations for 18 hours at 37° C.

E. Coli NCT 10418 = assay: Human bacteria MIC; assay type: cell-based; conditions: Escherichia coli
Description: as §1

[8] = system: Haemophilus influenzae Q1; assay: Human bacteria MIC; assay type: cell-based
Description: as §1

[9] = system: Pasteurella multocida 1633; assay: Human bacteria MIC; assay type: cell-based
Description: as §1

Staph. aureus Russell = assay: Human bacteria MIC; assay type: cell-based; conditions: Staphylococcus aureus; Staph. aureus Russell; nutrient agar, 5% chocolated horse blood, 18 hours 37° C.; read-out: M.I.C.
Description: as §1

Strep. faecalis I = assay: Human bacteria MIC; assay type: cell-based; conditions: Enterococcus faecalis, nutrient agar, 5% chocolated horse blood, 18 hours 37° C.
Description: as §1

Strep. pyogenes R80/421 = assay: Human bacteria MIC; assay type: cell-based; conditions: Streptococcus pyogenes
Description: as §1

[10] = Serum binding by ultrafiltration; assay type: in vitro ADME; conditions: pig, porcine serum, 8 mcg/ml, read-out: % bound to pig serum (converted)
Description: Serum binding was assessed by ultrafiltration of porcine serum containing compounds at 8 mcg/ml, and through an Amicon CF50A ultrafiltration cone. Separation of ultrafiltrate was achieved by centrifugation. Unbound concentrations of compound were measured in the ultrafiltrate by microbiological assay (B. subtilis ATCC 6633) against standards prepared in saline.

[11] = system: Haemophilus influenzae Wy21; assay: Human bacteria MIC; assay type: cell-based; conditions: Haemophilus influenzae Wy21; nutrient agar, 5% chocolated horse blood, 18 hours 37° C.; read-out: M.I.C.
Description: as §1

[12] = M. suipneumoniae JF 435, Friis broth, 0.9% agarose, 6 days 37° C., read-out: M.I.C.
[13] = M. suipneumoniae HK (2), Friis broth, 0.9% agarose, 6 days 37° C., read-out: M.I.C.
[14] = M. suipneumoniae J2206/183b, Friis broth, 0.9% agarose, 6 days 37° C., read-out: M.I.C.
[15] = E. Coli NCT 10418, nutrient agar, 5% chocolated horse blood, 18 hours 37° C., read-out: M.I.C.
[16] = Haemophilus influenzae Q1, nutrient agar, 5% chocolated horse blood, 18 hours 37° C., read-out: M.I.C.
[17] = Strep. pyogenes R80/421, nutrient agar, 5% chocolated horse blood, 18 hours 37° C., read-out: M.I.C.
[18] = 144 h, M. suipneumoniae Str. 11, Friis broth, 0.9% agarose, 6 days 37° C., read-out: M.I.C.
[19] = M. suipneumoniae PW/C/210, Friis broth, 0.9% agarose, 6 days 37° C., read-out: M.I.C.
[20] = M. suipneumoniae LABER, Friis broth, 0.9% agarose, 6 days 37° C., read-out: M.I.C.
[21] = Pasteurella multocida 1633, nutrient agar, 5% chocolated horse blood, 18 hours 37° C., read-out: M.I.C.

CON=C(CCCOC(=O)/C=C(\C)C[C@@H]1OC[C@H](C[C@@H]2O[C@H]2[C@@H](C)[C@H](C)O)[C@@H](O)[C@H]1O)c1ccccc1 [Example 5, 4-Methoxyimino-4-phenylbutyl monate A]
MIC (M. suipneumoniae NB12; NB12, 144 h): 0.25 µg/mL (≈ 0.481 µM) | MIC (M. suipneumoniae JF 435; [12]): 0.5 µg/mL (≈ 0.962 µM) | MIC (M. suipneumoniae HK (2); [13]): 0.5 µg/mL (≈ 0.962 µM) | MIC (M. suipneumoniae Str. 11; STR.11, 144 h): 0.25 µg/mL (≈ 0.481 µM) | MIC [1, 14]: 0.5 µg/mL (≈ 0.962 µM) | MIC [2]: 0.25 µg/mL (≈ 0.481 µM) | MIC (M. suipneumoniae LABER): 0.25 µg/mL (≈ 0.481 µM) | MIC (M. suipneumoniae UCD 1): 0.25 µg/mL (≈ 0.481 µM) | MIC [3]: 0.5 µg/mL (≈ 0.962 µM) | MIC [4]: 0.25 µg/mL (≈ 0.481 µM) | MIC (M. hyorhinis ATCC 23234): 0.25 µg/mL (≈ 0.481 µM) | MIC (M. hyorhinis ATCC 25021): 0.25 µg/mL (≈ 0.481 µM) | MIC [5]: 0.25 µg/mL (≈ 0.481 µM) | MIC (M. bovis NCTC 10131): 0.025 µg/mL (≈ 0.0481 µM) | MIC ([6]; M. bovigenitalium ATCC 14173, Friis broth, 0.9% agarose, 6 days 37° C., read-out: M.I.C.): 0.05 µg/mL (≈ 0.0962 µM) | MIC (M. dispar NCTC 10125): 0.1 µg/mL (≈ 0.192 µM) | MIC (M. gallisepticum S6): 10 µg/mL (≈ 19.2 µM) | MIC (M. pneumoniae ATCC 15492): 2.5 µg/mL (≈ 4.81 µM) | MIC ([7]; Corneybacterium xerosis 9755, nutrient agar, 5% chocolated horse blood, 18 hours 37° C., read-out: M.I.C.): > 100 µg/mL | MIC (E. Coli NCT 10418; [15]): > 100 µg/mL | MIC [8, 16]: 2.5 µg/mL (≈ 4.81 µM) | MIC ([9]; Pasteurella multocida, 1633, 18 h): 50 µg/mL (≈ 96.2 µM) | MIC (Staph. aureus Russell): 2.5 µg/mL (≈ 4.81 µM) | MIC (Strep. faecalis I): > 100 µg/mL | MIC (Strep. pyogenes R80/421; [17]): 2.5 µg/mL (≈ 4.81 µM) | fraction unbound [10]: < 0.068

C/C(=C\C(=O)OCc1ccc(C=NO)o1)C[C@@H]1OC[C@H](C[C@@H]2O[C@H]2[C@@H](C)[C@H](C)O)[C@@H](O)[C@H]1O [Example 7, 5-Hydroxyiminomethylfurfuryl monate A]
MIC (M. suipneumoniae NB12; NB12, 144 h): 1 µg/mL (≈ 2.14 µM) | MIC (M. suipneumoniae JF 435): 1 µg/mL (≈ 2.14 µM) | MIC (M. suipneumoniae HK (2)): 1 µg/mL (≈ 2.14 µM) | MIC (M. suipneumoniae Str. 11; [18]): 0.5 µg/mL (≈ 1.07 µM) | MIC ([1]; J2206/183B): 1 µg/mL (≈ 2.14 µM) | MIC [2, 19]: 0.5 µg/mL (≈ 1.07 µM) | MIC (M. suipneumoniae LABER; [20]): 0.5 µg/mL (≈ 1.07 µM) | MIC (M. suipneumoniae UCD 1): 1 µg/mL (≈ 2.14 µM) | MIC [3]: 0.5 µg/mL (≈ 1.07 µM) | MIC [4]: 1 µg/mL (≈ 2.14 µM) | MIC (M. hyorhinis ATCC 23234): 0.5 µg/mL (≈ 1.07 µM) | MIC (M. hyorhinis ATCC 25021): 0.5 µg/mL (≈ 1.07 µM) | MIC [5]: 0.25 µg/mL (≈ 0.535 µM) | MIC (M. bovis NCTC 10131): ≤ 0.01 µg/mL | MIC [6]: 0.025 µg/mL (≈ 0.0535 µM) | MIC (M. dispar NCTC 10125): 0.1 µg/mL (≈ 0.214 µM) | MIC (M. gallisepticum S6): 5 µg/mL (≈ 10.7 µM) | MIC ([7]; 18 h): > 100 µg/mL | MIC (E. Coli NCT 10418; 18 h): > 100 µg/mL | MIC ([8]; Haemophilus influenzae, Q1, 18 h): 0.25 µg/mL (≈ 0.535 µM) | MIC [11]: 0.25 µg/mL (≈ 0.535 µM) | MIC [9, 21]: 2.5 µg/mL (≈ 5.35 µM) | MIC (Staph. aureus Russell): 2.5 µg/mL (≈ 5.35 µM) | MIC (Strep. faecalis I): > 100 µg/mL | MIC (Strep. pyogenes R80/421; R80/421, 18 h): 1 µg/mL (≈ 2.14 µM)

C/C(=C\C(=O)OCCCC(=NO)c1ccccc1)C[C@@H]1OC[C@H](C[C@@H]2O[C@H]2[C@@H](C)[C@H](C)O)[C@@H](O)[C@H]1O [Example 1, 4-Hydroxyimino-4-phenylbutyl monate A]
MIC (M. suipneumoniae NB12; 144 h, M. suipneumoniae NB12, Friis broth, 0.9% agarose, 6 days 37° C., read-out: M.I.C.): 0.1 µg/mL (≈ 0.198 µM) | MIC (M. suipneumoniae JF 435; [12]): 0.25 µg/mL (≈ 0.494 µM) | MIC (M. suipneumoniae HK (2); [13]): 0.25 µg/mL (≈ 0.494 µM) | MIC (M. suipneumoniae Str. 11; [18]): 0.1 µg/mL (≈ 0.198 µM) | MIC [1, 14]: 0.25 µg/mL (≈ 0.494 µM) | MIC [2, 19]: 0.1 µg/mL (≈ 0.198 µM) | MIC (M. suipneumoniae LABER; [20]): 0.1 µg/mL (≈ 0.198 µM) | MIC (M. suipneumoniae UCD 1; M. suipneumoniae UCD 1, Friis broth, 0.9% agarose, 6 days 37° C., read-out: M.I.C.): 0.25 µg/mL (≈ 0.494 µM) | MIC [3]: 0.25 µg/mL (≈ 0.494 µM) | MIC ([4]; M. suipneumoniae NCTC 10110, Friis broth, 0.9% agarose, 6 days 37° C., read-out: M.I.C.): 0.25 µg/mL (≈ 0.494 µM) | MIC (M. hyorhinis ATCC 23234): 0.1 µg/mL (≈ 0.198 µM) | MIC (M. hyorhinis ATCC 25021): 0.1 µg/mL (≈ 0.198 µM) | MIC ([5]; M. hyosynoviae ATCC 25591, Friis broth, 0.9% agarose, 6 days 37° C., read-out: M.I.C.): 0.25 µg/mL (≈ 0.494 µM) | MIC (M. bovis NCTC 10131): ≤ 0.01 µg/mL | MIC [6]: 0.025 µg/mL (≈ 0.0494 µM) | MIC (M. dispar NCTC 10125): 0.05 µg/mL (≈ 0.0989 µM) | MIC (M. gallisepticum S6): 10 µg/mL (≈ 19.8 µM) | MIC (M. pneumoniae ATCC 15492; M. pneumoniae ATCC 15492, Friis broth, 0.9% agarose, 6 days 37° C., read-out: M.I.C.): 2.5 µg/mL (≈ 4.94 µM) | MIC (E. Coli NCT 10418; [15]): > 100 µg/mL | MIC [8, 16]: 0.5 µg/mL (≈ 0.989 µM) | MIC [11]: 0.5 µg/mL (≈ 0.989 µM) | MIC [9, 21]: 5 µg/mL (≈ 9.89 µM) | MIC (Staph. aureus Russell): 2.5 µg/mL (≈ 4.94 µM) | MIC (Strep. faecalis I): > 100 µg/mL | MIC (Strep. pyogenes R80/421; [17]): 2.5 µg/mL (≈ 4.94 µM) | fraction unbound [10]: < 0.08
